Columns and labels:
Assay type in all cases: cell-based, Mycobacterium smegmatis
[1] = tested on: M. smegmatis ΔrrnB 1491A (16S rRNA position 1491 A, eukaryotic cytosolic ribosomes); experiment: MIC, recombinant M. smegmatis with mutant ribosomes 1491A; details: M. smegmatis ΔrrnB 1491A mutant ribosomes; 72 h at 37° C.
Excerpt: (§1) The strain used for introduction/selection of mutational alterations was a genetically modified derivative of Mycobacterium smegmatis carrying a single functional chromosomal rRNA operon (Sander et al. Mol. Microbiol. 1996, 22: 841-848). This strain, termed M. smegmatis rrn^−, allowed for the selection of mutational rRNA gene alterations using a plasmid carrying the rRNA gene with the respective mutational alteration.)
(§2) The rRNA gene carried on the plasmid encodes either the complete rRNA operon (Prammananan et al. Antimicrob. Agents Chemother. 1999, 43: 447-453) or a non-functional rRNA gene fragment of approximately 1.0 kb (Pfister et al. Antimicrob. Agents Chemother. 2003, 47: 1496-1502). PCR-mutagenesis in vitro was used to generate the mutagenized rRNA gene fragment. In the case of a partial rRNA gene fragment the mutagenized rRNA gene fragment was cloned into vectors pMV261 or pMV361 (Sander et al. Mol. Microbiol. 2002, 46: 1295-1304; Pfister et al. Antimicrob. Agents Chemother. 2003, 47: 1496-1502) to result in vectors carrying a partial rRNA gene fragment of approximately 1.0 kb with the mutational alteration introduced. In the case of plasmids carrying the complete rRNA operon the mutagenized rRNA gene fragment obtained by PCR was cloned into vectors pMV361 rRNA or pMV261 rRNA using appropriate restriction sites (Prammananan et al. Antimicrob. Agents Chemother. 1999, 43: 447-453). Vectors pMV361 rRNA and pMV261 rRNA carried a complete copy of the rRNA operon from M. smegmatis (Sander et al. Mol. Microbiol. 1997, 26: 469-480). Introduction of mutations into the plasmid encoded rRNA was confirmed by sequencing.
(§3) The single rRNA allelic derivative of M. smegmatis, i.e. M. smegmatis rrn, was used for transformation of the plasmids. The strain was made electro-competent and transformed according to standard techniques and as described previously (Sander et al. Mol. Microbiol. 1997, 26: 469-484). Following primary selection, the plasmid-encoded mutational rRNA gene alteration was transferred into the single chromosomal rRNA operon by means of RecA-mediated homologous recombination (Prammananan at al. Antimicrob. Agents Chemother. 1999, 43: 447-453). Introduction of the mutational rRNA gene alteration into the single functional chromosomal rRNA operon by gene conversion was confirmed by sequence determination.
(§4) Ribosomal drug susceptibility was studied by determining the minimal inhibitory concentrations, as described in detail in Pfister et al. 2003 and 2005 (see above).
(§5) The recombinants carrying the respective mutational alterations in the functional rRNA operon were colony-purified and subjected to determinations of minimal inhibitory concentrations (MIC) to determine ribosomal drug susceptibility. Cultures from single colonies were grown in LB medium supplemented with 0.05% Tween 80 and used for MIC tests in a microtiter plate format. Starting cultures contained 200 μl of bacterial cells at an optical density of 0.025 at 600 nm, and the respective drug was added in twofold series of dilution.
(§6) Key nucleotides which distinguish the prokaryotic from the eukaryotic decoding site are 16S rRNA positions 1408 (bacterial ribosome: A, eukaryotic cytosolic ribosomes: G) and 1491 (bacterial ribosomes: G, eukaryotic cytosolic ribosomes: A, eukaryotic mitochondrial ribosome: C).

[2] = tested on: M. smegmatis ΔrrnB 1491C (16S rRNA position 1491 C, eukaryotic mitochondrial ribosome); experiment: MIC, recombinant M. smegmatis with mutant ribosomes 1491C; details: M. smegmatis ΔrrnB 1491C mutant ribosomes; 72 h at 37° C.
Excerpt: as §1, §2, §3, §4, §5, §6

[3] = tested on: M. smegmatis ΔrrnB 1408G (16S rRNA position 1408 G, eukaryotic cytosolic ribosomes); experiment: MIC, recombinant M. smegmatis with mutant ribosomes 1408G; details: M. smegmatis ΔrrnB 1408G mutant ribosomes; 72 h at 37° C.
Excerpt: as §1, §2, §3, §4, §5, §6

[4] = tested on: M. smegmatis ΔrrnB (bacterial ribosomes); experiment: MIC, recombinant M. smegmatis with bacterial (wild-type) ribosomes; details: 72 h at 37° C.
Excerpt: as §1, §2, §3, §4, §5, §6

Structure (SMILES)	minimal inhibitory concentrations ΔrrnB 1491A [1] [µg/mL]	minimal inhibitory concentrations ΔrrnB 1491C [2] [µg/mL]	minimal inhibitory concentrations ΔrrnB 1408G [3] [µg/mL]	minimal inhibitory concentrations ΔrrnB [4] [µg/mL]
NC[C@@H]1O[C@H](O[C@H]2[C@@H](O)[C@H](O[C@@H]3[C@@H](O)[C@H](N)C[C@H](N)[C@H]3O[C@H]3O[C@@H]4CO[C@@H](C5CCCCC5)O[C@H]4[C@H](O)[C@H]3N)O[C@@H]2CO)[C@H](N)[C@@H](O)[C@@H]1O [Compound 5.27, 4′,6′-O-Cyclohexylmethylideneparomomycin]	>512	>512	>512	32 to 64
NC[C@@H]1O[C@H](O[C@H]2[C@@H](O)[C@H](O[C@@H]3[C@@H](O)[C@H](N)C[C@H](N)[C@H]3O[C@H]3O[C@@H]4CO[C@@H](c5ccc([N+](=O)[O-])cc5)O[C@H]4[C@H](O)[C@H]3N)O[C@@H]2CO)[C@H](N)[C@@H](O)[C@@H]1O [Compound 5.6, 4′,6′-O-p-Nitrobenzylideneparomomycin]	>512	>512	512	4
NC[C@@H]1O[C@H](O[C@H]2[C@@H](O)[C@H](O[C@@H]3[C@@H](O)[C@H](N)C[C@H](N)[C@H]3O[C@H]3O[C@@H]4CO[C@@H](c5ccc(F)cc5)O[C@H]4[C@H](O)[C@H]3N)O[C@@H]2CO)[C@H](N)[C@@H](O)[C@@H]1O [Compound 5.12, 4,6′-O-p-Fluorobenzylideneparomomycin]	>512	>512	>512	2 to 4
N#Cc1ccc([C@@H]2OC[C@H]3O[C@H](O[C@H]4[C@H](O[C@@H]5O[C@H](CO)[C@@H](O[C@H]6O[C@@H](CN)[C@@H](O)[C@H](O)[C@H]6N)[C@H]5O)[C@@H](O)[C@H](N)C[C@@H]4N)[C@H](N)[C@@H](O)[C@@H]3O2)cc1 [Compound 5.10, 4,6′-O-p-Cyanobenzylideneparomomycin]	>512	>512	>512	16 to 32
COc1cc([C@@H]2OC[C@H]3O[C@H](O[C@H]4[C@H](O[C@@H]5O[C@H](CO)[C@@H](O[C@H]6O[C@@H](CN)[C@@H](O)[C@H](O)[C@H]6N)[C@H]5O)[C@@H](O)[C@H](N)C[C@@H]4N)[C@H](N)[C@@H](O)[C@@H]3O2)cc(OC)c1OC [Compound 5.14, 4′,6′-O-3,4,5-Trimethoxybenzylideneparomomycin]	>512	>512	>512	32 to 64
COc1cc(OC)cc([C@@H]2OC[C@H]3O[C@H](O[C@H]4[C@H](O[C@@H]5O[C@H](CO)[C@@H](O[C@H]6O[C@@H](CN)[C@@H](O)[C@H](O)[C@H]6N)[C@H]5O)[C@@H](O)[C@H](N)C[C@@H]4N)[C@H](N)[C@@H](O)[C@@H]3O2)c1 [Compound 5.13, 4′,6′-O-3,5-Dimethoxybenzylideneparomomycin]	>512	>512	>512	32
NC[C@@H]1O[C@H](O[C@H]2[C@@H](O)[C@H](O[C@@H]3[C@@H](O)[C@H](N)C[C@H](N)[C@H]3O[C@H]3O[C@@H]4CO[C@@H](c5ccccc5[N+](=O)[O-])O[C@H]4[C@H](O)[C@H]3N)O[C@@H]2CO)[C@H](N)[C@@H](O)[C@@H]1O [Compound 5.16, 4′,6′-O-o-Nitrobenzylideneparomomycin]	512	>512	512	4 to 16

From patent US8546343B2, “Aminoglycoside antibiotics targeting bacterial 16S ribosomal RNA” (Eidgenoessische Technische Hochschule Zurich, priority 2007, dated 2013)
